In patent US20160158317A1, “Antimicrobial Peptide Variants and Polynucleotides Encoding Same” (Adenium Biotech A/S, priority 2010, published 2016):
Where a SMILES comes first, the peptide text is derived from it. Bridges are numbered along the chain shown (N, C = ends).

test: Determination of the protein binding (90% serum, 30 kDa filter, HPLC); format: in vitro ADME; conditions: serum
Description: Protein binding assays were performed as follows. The purified peptides were mixed with 90% serum and centrifuged through a 30 kDa filter. The ultra-filtrate and the non filtrated serum samples were quantified by HPLC measurements and the protein binding was subsequently calculated.

Which fraction unbound does the source give for `CC(C)[C@@H]1NC(=O)CNC(=O)[C@H](CC(N)=O)NC(=O)[C@H](CCCNC(=N)N)NC(=O)[C@H](CCCNC(=N)N)NC(=O)[C@H](C(C)C)NC(=O)[C@@H]2CSSC[C@H](NC(=O)[C@H](C(C)C)NC(=O)[C@H](CCCNC(=N)N)NC1=O)C(=O)N[C@@H](Cc1ccc(O)cc1)C(=O)N[C@@H](CCCNC(=N)N)C(=O)N[C@@H](CCCNC(=N)N)C(=O)N[C@H](C(=O)N[C@@H](CC(N)=O)C(=O)O)CSSC[C@H](NC(=O)[C@H](Cc1ccccc1)NC(=O)CN)C(=O)N[C@@H](Cc1c[nH]c3ccccc13)C(=O)N[C@@H](Cc1ccc(O)cc1)C(=O)N[C@@H](C(C)C)C(=O)N2` [compound 28] (H-GFCWYVCVRRNGVRVCYRRCN-OH; disulfide 3-20, 7-16 (inferred); N-terminus and C-terminus assumed) here?
The fraction unbound was 0.08.

For `CC(C)[C@@H]1NC(=O)[C@H](CCCNC(=N)N)NC(=O)[C@H](C)NC(=O)CNC(=O)[C@H](CC(N)=O)NC(=O)[C@H](CCCNC(=N)N)NC(=O)[C@H](Cc2ccc(O)cc2)NC(=O)[C@H](C(C)C)NC(=O)[C@@H]2CSSC[C@H](NC1=O)C(=O)N[C@@H](Cc1ccc(O)cc1)C(=O)N[C@@H](CCCNC(=N)N)C(=O)N[C@@H](CCCNC(=N)N)C(=O)N[C@H](C(=O)N[C@@H](CC(N)=O)C(=O)O)CSSC[C@H](NC(=O)[C@H](Cc1ccccc1)NC(=O)CN)C(=O)N[C@@H](Cc1c[nH]c3ccccc13)C(=O)N[C@@H](Cc1ccc(O)cc1)C(=O)N[C@@H](C(C)C)C(=O)N2` [compound 29] (H-GFCWYVCVYRNGARVCYRRCN-OH; disulfide 3-20, 7-16 (inferred); N-terminus and C-terminus assumed), which fraction unbound is on record?
Its fraction unbound is 0.01.

With `CC(C)[C@@H]1NC(=O)[C@H](CCCNC(=N)N)NC(=O)CNC(=O)CNC(=O)[C@H](CC(N)=O)NC(=O)[C@H](CCCNC(=N)N)NC(=O)[C@H](Cc2ccc(O)cc2)NC(=O)[C@H](C(C)C)NC(=O)[C@@H]2CSSC[C@H](NC1=O)C(=O)N[C@@H](Cc1ccc(O)cc1)C(=O)N[C@@H](CCCNC(=N)N)C(=O)N[C@@H](CCCNC(=N)N)C(=O)N[C@H](C(=O)N[C@@H](CC(N)=O)C(=O)O)CSSC[C@H](NC(=O)[C@H](Cc1ccccc1)NC(=O)CN)C(=O)N[C@@H](Cc1c[nH]c3ccccc13)C(=O)N[C@@H](Cc1ccc(O)cc1)C(=O)N[C@@H](C(C)C)C(=O)N2` [compound 30] (H-GFCWYVCVYRNGGRVCYRRCN-OH; disulfide 3-20, 7-16 (inferred); N-terminus and C-terminus assumed) as the molecule, how does the fraction unbound read?
The fraction unbound was 0.01.

With `CC(C)[C@@H]1NC(=O)[C@@H]2CSSC[C@H](NC(=O)[C@H](C(C)C)NC(=O)[C@H](CCCNC(=N)N)NC(=O)[C@@H]3CCCN3C(=O)CNC(=O)[C@H](CC(N)=O)NC(=O)[C@H](CCCNC(=N)N)NC(=O)[C@H](Cc3ccc(O)cc3)NC1=O)C(=O)N[C@@H](Cc1ccc(O)cc1)C(=O)N[C@@H](CCCNC(=N)N)C(=O)N[C@@H](CCCNC(=N)N)C(=O)N[C@H](C(=O)N[C@@H](CC(N)=O)C(=O)O)CSSC[C@H](NC(=O)[C@H](Cc1ccccc1)NC(=O)CN)C(=O)N[C@@H](Cc1c[nH]c3ccccc13)C(=O)N[C@@H](Cc1ccc(O)cc1)C(=O)N[C@@H](C(C)C)C(=O)N2` [compound 33] (H-GFCWYVCVYRNGPRVCYRRCN-OH; disulfide 3-20, 7-16 (inferred); N-terminus and C-terminus assumed) as the molecule, how does the fraction unbound read?
The fraction unbound was 0.01.

For `CC(C)[C@@H]1NC(=O)[C@H](CCCNC(=N)N)NC(=O)[C@H](CO)NC(=O)CNC(=O)[C@H](CC(N)=O)NC(=O)[C@H](CCCNC(=N)N)NC(=O)[C@H](Cc2ccc(O)cc2)NC(=O)[C@H](C(C)C)NC(=O)[C@@H]2CSSC[C@H](NC1=O)C(=O)N[C@@H](Cc1ccc(O)cc1)C(=O)N[C@@H](CCCNC(=N)N)C(=O)N[C@@H](CCCNC(=N)N)C(=O)N[C@H](C(=O)N[C@@H](CC(N)=O)C(=O)O)CSSC[C@H](NC(=O)[C@H](Cc1ccccc1)NC(=O)CN)C(=O)N[C@@H](Cc1c[nH]c3ccccc13)C(=O)N[C@@H](Cc1ccc(O)cc1)C(=O)N[C@@H](C(C)C)C(=O)N2` [compound 36] (H-GFCWYVCVYRNGSRVCYRRCN-OH; disulfide 3-20, 7-16 (inferred); N-terminus and C-terminus assumed), which fraction unbound is on record?
Its fraction unbound is 0.4.

With `CC(C)[C@@H]1NC(=O)CNC(=O)[C@H](CC(N)=O)NC(=O)[C@H](CCCNC(=N)N)NC(=O)[C@H](Cc2ccc(O)cc2)NC(=O)[C@H](C(C)C)NC(=O)[C@@H]2CSSC[C@H](NC(=O)CNC(=O)[C@H](CCCNC(=N)N)NC1=O)C(=O)N[C@@H](Cc1ccc(O)cc1)C(=O)N[C@@H](CCCNC(=N)N)C(=O)N[C@@H](CCCNC(=N)N)C(=O)N[C@H](C(=O)N[C@@H](CC(N)=O)C(=O)O)CSSC[C@H](NC(=O)[C@H](Cc1ccccc1)NC(=O)CN)C(=O)N[C@@H](Cc1c[nH]c3ccccc13)C(=O)N[C@@H](Cc1ccc(O)cc1)C(=O)N[C@@H](C(C)C)C(=O)N2` [compound 38] (H-GFCWYVCVYRNGVRGCYRRCN-OH; disulfide 3-20, 7-16 (inferred); N-terminus and C-terminus assumed) as the molecule, how does the fraction unbound read?
Its fraction unbound is 0.07.

For `CC(C)[C@@H]1NC(=O)CNC(=O)[C@H](CC(N)=O)NC(=O)[C@H](CCCNC(=N)N)NC(=O)[C@H](Cc2ccc(O)cc2)NC(=O)[C@H](C(C)C)NC(=O)[C@@H]2CSSC[C@H](NC(=O)[C@H](Cc3c[nH]cn3)NC(=O)[C@H](CCCNC(=N)N)NC1=O)C(=O)N[C@@H](Cc1ccc(O)cc1)C(=O)N[C@@H](CCCNC(=N)N)C(=O)N[C@@H](CCCNC(=N)N)C(=O)N[C@H](C(=O)N[C@@H](CC(N)=O)C(=O)O)CSSC[C@H](NC(=O)[C@H](Cc1ccccc1)NC(=O)CN)C(=O)N[C@@H](Cc1c[nH]c3ccccc13)C(=O)N[C@@H](Cc1ccc(O)cc1)C(=O)N[C@@H](C(C)C)C(=O)N2` [compound 39] (H-GFCWYVCVYRNGVRHCYRRCN-OH; disulfide 3-20, 7-16 (inferred); N-terminus and C-terminus assumed), which fraction unbound is on record?
Its fraction unbound is 0.02.

With `CC(C)[C@@H]1NC(=O)CNC(=O)[C@H](CC(N)=O)NC(=O)[C@H](CCCNC(=N)N)NC(=O)[C@H](Cc2ccc(O)cc2)NC(=O)[C@H](C(C)C)NC(=O)[C@@H]2CSSC[C@H](NC(=O)[C@H](CC(N)=O)NC(=O)[C@H](CCCNC(=N)N)NC1=O)C(=O)N[C@@H](Cc1ccc(O)cc1)C(=O)N[C@@H](CCCNC(=N)N)C(=O)N[C@@H](CCCNC(=N)N)C(=O)N[C@H](C(=O)N[C@@H](CC(N)=O)C(=O)O)CSSC[C@H](NC(=O)[C@H](Cc1ccccc1)NC(=O)CN)C(=O)N[C@@H](Cc1c[nH]c3ccccc13)C(=O)N[C@@H](Cc1ccc(O)cc1)C(=O)N[C@@H](C(C)C)C(=O)N2` [compound 41] (H-GFCWYVCVYRNGVRNCYRRCN-OH; disulfide 3-20, 7-16 (inferred); N-terminus and C-terminus assumed) as the molecule, how does the fraction unbound read?
Its fraction unbound is 0.03.

With `CC(C)[C@@H]1NC(=O)CNC(=O)[C@H](CC(N)=O)NC(=O)[C@H](CCCNC(=N)N)NC(=O)[C@H](Cc2ccc(O)cc2)NC(=O)[C@H](C(C)C)NC(=O)[C@@H]2CSSC[C@H](NC(=O)[C@H](CCC(N)=O)NC(=O)[C@H](CCCNC(=N)N)NC1=O)C(=O)N[C@@H](Cc1ccc(O)cc1)C(=O)N[C@@H](CCCNC(=N)N)C(=O)N[C@@H](CCCNC(=N)N)C(=O)N[C@H](C(=O)N[C@@H](CC(N)=O)C(=O)O)CSSC[C@H](NC(=O)[C@H](Cc1ccccc1)NC(=O)CN)C(=O)N[C@@H](Cc1c[nH]c3ccccc13)C(=O)N[C@@H](Cc1ccc(O)cc1)C(=O)N[C@@H](C(C)C)C(=O)N2` [compound 42] (H-GFCWYVCVYRNGVRQCYRRCN-OH; disulfide 3-20, 7-16 (inferred); N-terminus and C-terminus assumed) as the molecule, how does the fraction unbound read?
The fraction unbound was 0.04.
